# Data: the OPERA property sets (Mansouri et al. 2018)
row,Structure (SMILES),logP
1,Clc1ccsc1,2.55
2,COC(=O)c1cccs1,1.83
3,CCCOC(=O)c1cccs1,3.01
4,COc1cccs1,2.13
5,CCCNC(=O)c1cccs1,1.68
6,CNC(=O)c1cccs1,0.84

# Second part, the compound after the results:
row,logP,Structure (SMILES)
1,2.32,CCOC(=O)c1ccsc1
2,1.65,CCCNC(=O)c1ccsc1
3,0.81,CNC(=O)c1ccsc1
4,1.18,CCNC(=O)c1ccsc1
5,3.03,CCCOC(=O)c1ccsc1
6,1.18,CCNC(=O)c1cccs1
